Measurements as given in paper PMC11859928, “Design, Synthesis, and Antiproliferative Activity of Novel Indole/1,2,4-Triazole Hybrids as Tubulin Polymerization Inhibitors” (Pharmaceuticals, 2025).
Where two headings read alike, the source gives them in different places.

Columns and labels:
SNB-75 [1] = assay: NCI five-dose assay; type: cell-based, human; settings: SNB-75, five dose levels
NCI-H460 = assay: NCI five-dose assay; type: cell-based, human; settings: NCI-H460, five dose levels
MCF7 [2] = assay: NCI five-dose assay; type: cell-based, human; settings: MCF7, five dose levels
MALME-3M = assay: NCI five-dose assay; type: cell-based, human; settings: five dose levels
HOP-62 [3] = assay: NCI five-dose assay; type: cell-based, human; settings: HOP-62, five dose levels
HCT-116 = assay: NCI five-dose assay; type: cell-based, human; settings: HCT-116, five dose levels
A498 = assay: NCI one-dose assay; type: cell-based, human; settings: Homo sapiens, A498, A498, Renal cancer, read-out: Cell growth inhibition %
786-0 = assay: NCI one-dose assay; type: cell-based, human; settings: Homo sapiens, 786-0, 786-0, Renal cancer, read-out: Cell growth inhibition %
HOP-92 = assay: NCI one-dose assay; type: cell-based, human; settings: Homo sapiens, HOP-92, HOP-92, Non-small cell lung cancer, read-out: Cell growth inhibition %
UO-31 = assay: NCI one-dose assay; type: cell-based, human; settings: Homo sapiens, UO-31, UO-31, Renal cancer, read-out: Cell growth inhibition %
UACC-62 = assay: NCI five-dose assay; type: cell-based, human; settings: UACC-62, five dose levels
SNB-75 [4] = assay: NCI one-dose assay; type: cell-based; settings: Homo sapiens, SNB-75, CNS cancer, read-out: Cell growth inhibition %
SW-620 = assay: NCI one-dose assay; type: cell-based; settings: Homo sapiens, SW-620, Colon cancer, read-out: Cell growth inhibition %
MDA-MB-468 = assay: NCI one-dose assay; type: cell-based; settings: Homo sapiens, MDA-MB-468, Breast cancer, read-out: Cell growth inhibition %
SNB-19 = assay: NCI one-dose assay; type: cell-based; settings: Homo sapiens, SNB-19, CNS cancer, read-out: Cell growth inhibition %
T-47D = assay: NCI one-dose assay; type: cell-based; settings: Homo sapiens, T47D, Breast cancer, read-out: Cell growth inhibition %
SK-MEL-2 = assay: NCI one-dose assay; type: cell-based; settings: Homo sapiens, SK-MEL-2, Melanoma, read-out: Cell growth inhibition %
HT29 = assay: NCI one-dose assay; type: cell-based; settings: Homo sapiens, HT-29, HT29, Colon cancer, read-out: Cell growth inhibition %
SK-MEL-5 = assay: NCI one-dose assay; type: cell-based; settings: Homo sapiens, SK-MEL-5, Melanoma, read-out: Cell growth inhibition %
SF-268 = assay: NCI one-dose assay; type: cell-based; settings: Homo sapiens, SF-268, CNS cancer, read-out: Cell growth inhibition %
MCF7 [5] = assay: NCI one-dose assay; type: cell-based; settings: Homo sapiens, MCF7, Breast cancer, read-out: Cell growth inhibition %
NCI-H322M = assay: NCI one-dose assay; type: cell-based; settings: Homo sapiens, Non-small cell lung cancer, read-out: Cell growth inhibition %
OVCAR-4 = assay: NCI one-dose assay; type: cell-based; settings: Homo sapiens, OVCAR-4, Ovarian cancer, read-out: Cell growth inhibition %
M14 = assay: NCI one-dose assay; type: cell-based; settings: Homo sapiens, M14, Melanoma, read-out: Cell growth inhibition %
MDA-MB-435 = assay: NCI one-dose assay; type: cell-based; settings: Homo sapiens, MDA-MB-435, Melanoma, read-out: Cell growth inhibition %
TK-10 = assay: NCI one-dose assay; type: cell-based; settings: Homo sapiens, TK-10, Renal cancer, read-out: Cell growth inhibition %
LOX IMVI = assay: NCI one-dose assay; type: cell-based; settings: Homo sapiens, Melanoma, read-out: Cell growth inhibition %
HOP-62 [6] = assay: NCI one-dose assay; type: cell-based; settings: Homo sapiens, HOP-62, Non-small cell lung cancer, read-out: Cell growth inhibition %
OVCAR-8 = assay: NCI one-dose assay; type: cell-based; settings: Homo sapiens, OVCAR-8, Ovarian cancer, read-out: Cell growth inhibition %
NCI 60 cell lines = assay: NCI one-dose assay, full panel; type: cell-based, human; settings: Homo sapiens, 60 cell, read-out: cell growth inhibition percentage, range
[7] = Homo sapiens, read-out: GI50 Conc. per Cell Lines
[8] = Homo sapiens, read-out: LC50 (the source's name)

Question: Which results are given for `O/N=C(\CSc1nnc(-c2c[nH]c3ccccc23)n1-c1ccccc1)c1ccc(Cl)cc1` [Compound 7j, (Z)-2-((5-(1H-Indol-3-yl)-4-phenyl-4H-1,2,4-triazol-3-yl)thio)-1-(4-chlorophenyl) Ethanone Oxime]?
Answer: GI50 (SNB-75 [1]; [7]): 1.68 µM; CC50 (SNB-75 [1]; [8]): > 100 µM; TGI Conc. per Cell Lines (SNB-75 [1]): 5.80 µM; GI50 (NCI-H460; [7]): 3.33 µM; CC50 (NCI-H460; [8]): > 100 µM; TGI Conc. per Cell Lines (NCI-H460): 15.7 µM; LC50 (MCF7 [2]; Homo sapiens): 22.5 µM; GI50 (MCF7 [2]; [7]): 3.63 µM; TGI Conc. per Cell Lines (MCF7 [2]): 21.6 µM; GI50 (MALME-3M; [7]): 4.99 µM; CC50 (MALME-3M; [8]): > 100 µM; TGI Conc. per Cell Lines (MALME-3M): 27.5 µM; TGI Conc. per Cell Lines (HOP-62 [3]): 3.65 µM; GI50 (HOP-62 [3]; [7]): 1.74 µM; TGI Conc. per Cell Lines (HCT-116): 13.7 µM; GI50 (HCT-116; [7]): 2.92 µM; CC50 (HCT-116; [8]): > 100 µM; inhibition at 10 µM (A498): 16.3%; inhibition at 10 µM (786-0): 65.9%; inhibition at 10 µM (HOP-92): 108%; inhibition at 10 µM (UO-31): 65.6%; GI50 (UACC-62; [7]): 2.62 µM; CC50 (UACC-62; [8]): > 100 µM; TGI Conc. per Cell Lines (UACC-62): 10.1 µM; inhibition at 10 µM (SNB-75 [4]): 52%; inhibition at 10 µM (SW-620): 137%; inhibition at 10 µM (MDA-MB-468): 185%; inhibition at 10 µM (SNB-19): 82.6%; inhibition at 10 µM (T-47D): 96.1%; inhibition at 10 µM (SK-MEL-2): 79.9%; inhibition at 10 µM (HT29): 95.5%; inhibition at 10 µM (SK-MEL-5): 78.8%; inhibition at 10 µM (SF-268): 149%; inhibition at 10 µM (MCF7 [5]): 96.7%; inhibition at 10 µM (NCI-H322M): 149%; inhibition at 10 µM (OVCAR-4): 181%; inhibition at 10 µM (M14): 147%; inhibition at 10 µM (MDA-MB-435): 200%; inhibition at 10 µM (TK-10): 123%; inhibition at 10 µM (LOX IMVI): 189%; inhibition at 10 µM (HOP-62 [6]): 164%; inhibition at 10 µM (OVCAR-8): 93.6%; inhibition at 10 µM (NCI 60 cell lines; six cell lines with moderate activity): 52 to 66%; inhibition at 10 µM (NCI 60 cell lines; twenty-eight cell lines with total cell death): 102 to 200%; inhibition at 10 µM (NCI 60 cell lines; twenty-four cell lines): 69.5 to 99.3%
